The target in test [1] is T1, EGFR wild type (Homo sapiens, UniProt P00533).
T1 construct: purchased Carna Bio
Briefly: Inhibition of EGFR wild type biochemical enzymatic activity (HTRF). To be noted: EGFR wild type, 1 mM ATP, 1 h at room temperature, read-out: IC50 @WT. In outline: (§1)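 Recombinant kinases phosphorylated 1 μM biotinylated TK substrate with 1 mM ATP in buffer with 5 mM MgCl2, 1 mM MnCl2, 0.01% CHAPS, 1 mM DTT, 0.5% DMSO. Reaction ran 1 h at room temperature, stopped with EDTA-containing detection mix. HTRF 665/615 nm ratio gave IC50 via four-parameter logistic fit.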
Background: In TR-FRET formats the signal depends on donor and acceptor labels being close together.

Test [2] concerns the target T2, EGFR L858R (Homo sapiens, UniProt P00533, L858R).
T2 construct: purchased Carna Bio
Put plainly: Inhibition of EGFR L858R biochemical enzymatic activity (HTRF). The note with it: 1 mM ATP, 1 h at room temperature, read-out: IC50 @L858R. In outline: as §1

Test [3] has as its target T3, EGFR L858R/T790M (Homo sapiens, UniProt P00533, L858R/T790M).
T3 construct: purchased Carna Bio
Briefly: Inhibition of EGFR L858R/T790M biochemical enzymatic activity (HTRF). To be noted: EGFR L858R/T790M, 1 mM ATP, 1 h at room temperature, read-out: IC50 @L858R-T790M. In outline:
as §1

For test [4], the target named is T4, EGFR Exon19Del (Homo sapiens, UniProt P00533, DEL746-750).
T4 construct: purchased Carna Bio
Briefly: Inhibition of EGFR Exon19Del biochemical enzymatic activity (HTRF). The note with it: EGFR Exon19Del, 1 mM ATP, 1 h at room temperature, read-out: IC50 @Del19. In outline: as §1

For test [5], the target named is T5, EGFR Exon19Del/T790M (Homo sapiens, UniProt P00533, DEL746-750/T790M).
T5 construct: purchased Carna Bio
Briefly: Inhibition of EGFR Exon19Del/T790M biochemical enzymatic activity (HTRF). To be noted: EGFR Exon19Del/T790M, 1 mM ATP, 1 h at room temperature, read-out: IC50 @Del19-T790M. The procedure, abridged:
as §1

Test [6] deals with T6, EGFR[T790M/C797S/L858R] (Homo sapiens, UniProt P00533, C797S/L858R/T790M).
T6 construct: purchased Carna Bio
Briefly: Inhibition of EGFR[T790M/C797S/L858R] biochemical enzymatic activity (HTRF). To be noted: EGFR[T790M/C797S/L858R], 1 mM ATP, 1 h at room temperature, read-out: IC50 @T790M- C797S - L858R. The procedure, abridged:
as §1

Test [7] concerns the target T7, EGFR[T790M/C797S/d746-750] (Homo sapiens, UniProt P00533, C797S/DEL746-750/T790M).
T7 construct: purchased Carna Bio
Put plainly: Inhibition of EGFR[T790M/C797S/d746-750] biochemical enzymatic activity (HTRF). To be noted: EGFR[T790M/C797S/d746-750], 1 mM ATP, 1 h at room temperature, read-out: IC50 @T790M - C797S - Del19. In outline:
as §1

Test [8] deals with T8, EGFR (d746-750 C797S) (Homo sapiens, UniProt P00533, C797S/DEL746-750).
T8 construct: purchased signalchem
Briefly: Inhibition of EGFR (d746-750 C797S) biochemical enzymatic activity (HTRF). To be noted: EGFR (d746-750 C797S), 1 mM ATP, 1 h at room temperature, read-out: IC50 @Del19-C797S. In outline: as §1

Test [9] addresses T9, EGFR (C797S L858R) (Homo sapiens, UniProt P00533, C797S/L858R).
T9 construct: purchased signalchem
Put plainly: Inhibition of EGFR (C797S L858R) biochemical enzymatic activity (HTRF). The note with it: EGFR (C797S L858R), 1 mM ATP, 1 h at room temperature, read-out: IC50 @L858-C797S. The procedure, abridged:
as §1

In test [10] the test system is Ba/F3 cells expressing EGFR mutations. Briefly: Cell proliferation assay, Ba/F3 cells expressing EGFR mutations (CellTiter-Glo, 72 hours). The format is cell-based. The procedure, abridged: (§2)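 Seed Ba/F3 at 5000 cells/well and PC-9 at 500 cells/well (10% FBS RPMI1640); incubate overnight; add compound dilution series; read a G0 plate; incubate; read G3; GI50 from best-fit curve.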
(In general: Cellular ATP, detected with luciferase, serves as a proxy for viable cell number.)

The test system of test [11] is PC-9. Briefly: Cell proliferation assay, PC-9 cells (CellTiter-Glo, 72 hours). It is filed as cell-based. The note with it: PC9 cells, read-out: GI50 PC9. In outline:
as §2

Test [12] deals with A-431. Briefly: Cell proliferation assay, A-431 cells (GI50, Table 6). It is filed as cell-based.
The mark [13] stands for this setting: BaF3 cells, EGFR DEL19 - C797S, read-out: GI50 DEL19 - C797S/BaF3.
The mark [14] stands for this setting: BaF3 cells, EGFR DEL19 - T790-C797S, read-out: GI50 DEL19 - T790-C797S/BaF3.
Where [15] appears, read: BaF3 cells, EGFR L858R - C797S, read-out: GI50 L858R - C797S/BaF3.
[16] abbreviates: BaF3 cells, EGFR L858R - T790-C797S, read-out: GI50 L858R - T790-C797S/BaF3.
Setting [17] is: BaF3 cells, EGFR L858R - T790M, read-out: GI50 L858R - T790M/BaF3.
The mark [18] stands for this setting: BaF3 cells, EGFR L858R, read-out: GI50 L858R/BaF3.
[19] abbreviates: EGFR DEL19 - T790M, read-out: GI50 DEL19 - T790M.
The mark [20] stands for this setting: Homo sapiens, A-431, A-431 cells.

Where two headings read alike, the source gives them in different places.

Results on 5 molecules are retold here after patent US20260365670A1, “EGFR INHIBITORS AND USES THEREOF” (DIZAL (JIANGSU) PHARMACEUTICAL CO., LTD., priority 2022, published 2026).

T4 sequence (P00533 with tags, fused parts or gaps DEL746-750 limits assumed): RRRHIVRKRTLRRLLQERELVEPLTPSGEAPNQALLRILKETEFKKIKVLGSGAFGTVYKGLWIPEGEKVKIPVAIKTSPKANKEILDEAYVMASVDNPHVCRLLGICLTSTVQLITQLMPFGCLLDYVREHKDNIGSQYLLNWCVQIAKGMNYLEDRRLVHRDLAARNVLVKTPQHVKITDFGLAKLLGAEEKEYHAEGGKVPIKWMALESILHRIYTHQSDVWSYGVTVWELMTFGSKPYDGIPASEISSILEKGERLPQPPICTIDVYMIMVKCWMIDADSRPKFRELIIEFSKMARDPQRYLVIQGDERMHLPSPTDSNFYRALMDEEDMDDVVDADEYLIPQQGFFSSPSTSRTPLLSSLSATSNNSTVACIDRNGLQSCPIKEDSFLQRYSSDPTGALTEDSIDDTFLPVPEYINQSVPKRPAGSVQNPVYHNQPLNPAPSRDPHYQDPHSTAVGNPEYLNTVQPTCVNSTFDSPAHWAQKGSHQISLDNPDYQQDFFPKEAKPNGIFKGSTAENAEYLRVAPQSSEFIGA
T1 sequence (P00533 25-1210): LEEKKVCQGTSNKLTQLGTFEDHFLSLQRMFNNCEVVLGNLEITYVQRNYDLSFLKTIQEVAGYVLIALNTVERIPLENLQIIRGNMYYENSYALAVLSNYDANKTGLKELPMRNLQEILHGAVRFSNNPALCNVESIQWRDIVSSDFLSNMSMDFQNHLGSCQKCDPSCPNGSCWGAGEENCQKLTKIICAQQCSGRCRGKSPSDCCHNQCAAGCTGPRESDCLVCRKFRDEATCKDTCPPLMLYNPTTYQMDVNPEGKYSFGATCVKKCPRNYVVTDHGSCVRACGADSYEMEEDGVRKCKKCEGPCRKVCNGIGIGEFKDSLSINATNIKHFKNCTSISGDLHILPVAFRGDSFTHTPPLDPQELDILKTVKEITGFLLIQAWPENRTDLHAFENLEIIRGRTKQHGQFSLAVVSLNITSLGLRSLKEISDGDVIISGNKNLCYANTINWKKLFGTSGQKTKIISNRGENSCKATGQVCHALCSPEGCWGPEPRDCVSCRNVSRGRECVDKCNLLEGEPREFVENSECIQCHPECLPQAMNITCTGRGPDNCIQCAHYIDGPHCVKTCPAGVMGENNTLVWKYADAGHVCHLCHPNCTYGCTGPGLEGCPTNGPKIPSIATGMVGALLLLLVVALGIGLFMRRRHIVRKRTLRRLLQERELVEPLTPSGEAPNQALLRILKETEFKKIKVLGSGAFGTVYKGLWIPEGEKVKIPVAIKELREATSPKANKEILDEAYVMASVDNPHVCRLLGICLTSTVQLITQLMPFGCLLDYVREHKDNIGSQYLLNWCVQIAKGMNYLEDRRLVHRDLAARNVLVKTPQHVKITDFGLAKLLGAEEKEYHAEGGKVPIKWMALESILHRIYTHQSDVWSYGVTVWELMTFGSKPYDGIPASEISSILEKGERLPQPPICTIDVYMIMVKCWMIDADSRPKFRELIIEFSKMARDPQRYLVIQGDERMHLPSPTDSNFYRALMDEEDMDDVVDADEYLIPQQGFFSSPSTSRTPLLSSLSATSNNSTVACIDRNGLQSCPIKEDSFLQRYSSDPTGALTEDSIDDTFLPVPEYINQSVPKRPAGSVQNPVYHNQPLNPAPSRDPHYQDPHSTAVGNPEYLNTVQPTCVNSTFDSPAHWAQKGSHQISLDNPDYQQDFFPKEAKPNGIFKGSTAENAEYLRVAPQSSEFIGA
T3 sequence (P00533 25-1210 T790M/L858R): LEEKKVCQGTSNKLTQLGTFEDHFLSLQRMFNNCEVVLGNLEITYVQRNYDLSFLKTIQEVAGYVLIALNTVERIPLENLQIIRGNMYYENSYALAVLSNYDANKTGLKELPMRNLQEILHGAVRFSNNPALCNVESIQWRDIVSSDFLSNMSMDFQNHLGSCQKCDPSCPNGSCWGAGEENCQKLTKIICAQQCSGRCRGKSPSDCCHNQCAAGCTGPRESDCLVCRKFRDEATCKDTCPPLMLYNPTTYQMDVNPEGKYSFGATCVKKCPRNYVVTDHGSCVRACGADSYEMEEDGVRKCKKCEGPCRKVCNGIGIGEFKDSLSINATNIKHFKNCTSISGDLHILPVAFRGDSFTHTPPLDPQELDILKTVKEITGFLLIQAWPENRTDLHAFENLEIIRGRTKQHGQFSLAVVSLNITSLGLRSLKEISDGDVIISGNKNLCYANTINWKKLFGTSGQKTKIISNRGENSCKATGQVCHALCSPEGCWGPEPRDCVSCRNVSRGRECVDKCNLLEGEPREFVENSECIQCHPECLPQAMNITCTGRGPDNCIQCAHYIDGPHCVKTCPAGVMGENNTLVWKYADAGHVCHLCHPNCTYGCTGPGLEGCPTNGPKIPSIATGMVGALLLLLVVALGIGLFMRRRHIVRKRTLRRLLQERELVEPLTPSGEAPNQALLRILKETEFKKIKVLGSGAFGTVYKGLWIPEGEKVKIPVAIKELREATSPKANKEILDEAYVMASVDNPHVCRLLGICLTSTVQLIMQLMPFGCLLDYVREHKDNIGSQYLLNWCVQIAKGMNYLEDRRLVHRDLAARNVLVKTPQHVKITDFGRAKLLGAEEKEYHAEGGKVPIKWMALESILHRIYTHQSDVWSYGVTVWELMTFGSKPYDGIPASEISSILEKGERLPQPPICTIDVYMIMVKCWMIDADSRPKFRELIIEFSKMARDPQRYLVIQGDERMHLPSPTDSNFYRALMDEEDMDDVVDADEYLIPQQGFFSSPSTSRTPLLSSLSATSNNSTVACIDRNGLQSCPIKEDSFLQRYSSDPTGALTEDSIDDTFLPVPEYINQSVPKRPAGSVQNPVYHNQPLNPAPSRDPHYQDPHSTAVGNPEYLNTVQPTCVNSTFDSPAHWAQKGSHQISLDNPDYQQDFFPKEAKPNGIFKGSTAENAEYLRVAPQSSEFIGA
T2 sequence (P00533 25-1210 L858R): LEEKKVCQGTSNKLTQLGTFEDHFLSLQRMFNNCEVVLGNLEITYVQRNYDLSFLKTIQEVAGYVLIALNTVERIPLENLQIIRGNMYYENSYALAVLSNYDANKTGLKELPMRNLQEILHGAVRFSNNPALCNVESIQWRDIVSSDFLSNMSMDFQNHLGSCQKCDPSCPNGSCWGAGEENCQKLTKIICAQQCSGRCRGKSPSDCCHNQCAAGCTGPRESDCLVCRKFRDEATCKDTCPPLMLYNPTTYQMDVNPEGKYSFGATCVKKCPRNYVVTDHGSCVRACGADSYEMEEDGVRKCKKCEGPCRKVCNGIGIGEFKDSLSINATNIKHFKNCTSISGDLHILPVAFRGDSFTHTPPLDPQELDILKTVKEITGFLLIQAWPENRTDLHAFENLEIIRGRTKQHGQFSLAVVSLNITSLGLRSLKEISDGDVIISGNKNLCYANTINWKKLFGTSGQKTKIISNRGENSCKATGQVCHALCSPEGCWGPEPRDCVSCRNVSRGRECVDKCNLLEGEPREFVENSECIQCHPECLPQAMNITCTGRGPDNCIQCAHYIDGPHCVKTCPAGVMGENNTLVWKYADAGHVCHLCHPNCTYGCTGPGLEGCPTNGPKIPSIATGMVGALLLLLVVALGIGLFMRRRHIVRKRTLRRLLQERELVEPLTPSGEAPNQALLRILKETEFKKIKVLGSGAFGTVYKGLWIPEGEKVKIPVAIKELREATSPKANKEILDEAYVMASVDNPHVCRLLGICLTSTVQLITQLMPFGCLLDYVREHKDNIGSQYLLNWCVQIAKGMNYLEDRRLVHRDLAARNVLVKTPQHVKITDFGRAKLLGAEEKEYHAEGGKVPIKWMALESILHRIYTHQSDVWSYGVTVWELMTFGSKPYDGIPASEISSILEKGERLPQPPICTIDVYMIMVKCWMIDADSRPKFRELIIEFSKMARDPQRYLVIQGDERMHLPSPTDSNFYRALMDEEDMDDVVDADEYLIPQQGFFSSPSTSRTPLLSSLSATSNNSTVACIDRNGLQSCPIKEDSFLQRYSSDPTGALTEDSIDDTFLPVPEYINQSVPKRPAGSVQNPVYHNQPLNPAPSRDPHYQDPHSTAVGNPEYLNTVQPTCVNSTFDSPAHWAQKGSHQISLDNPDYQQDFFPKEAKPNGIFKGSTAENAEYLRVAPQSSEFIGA
T8 sequence (P00533 with tags, fused parts or gaps DEL746-750/C797S limits assumed): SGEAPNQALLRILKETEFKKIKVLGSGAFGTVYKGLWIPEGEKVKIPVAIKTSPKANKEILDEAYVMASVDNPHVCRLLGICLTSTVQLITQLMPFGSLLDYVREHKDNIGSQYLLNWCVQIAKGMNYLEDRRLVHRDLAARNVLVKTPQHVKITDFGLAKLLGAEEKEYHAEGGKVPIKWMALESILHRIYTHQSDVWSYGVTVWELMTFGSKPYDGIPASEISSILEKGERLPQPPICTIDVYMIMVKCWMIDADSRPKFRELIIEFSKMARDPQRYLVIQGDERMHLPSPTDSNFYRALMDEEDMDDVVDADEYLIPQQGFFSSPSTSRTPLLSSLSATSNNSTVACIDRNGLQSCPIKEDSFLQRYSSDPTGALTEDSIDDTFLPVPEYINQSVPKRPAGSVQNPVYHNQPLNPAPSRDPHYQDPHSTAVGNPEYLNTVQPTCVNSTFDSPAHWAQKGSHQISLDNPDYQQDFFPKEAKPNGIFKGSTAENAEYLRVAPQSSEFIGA

Turning to `Cc1cc2cc(n1)-c1cnn(C)c1OCCN1CC3CCC(C3)(C1)n1c(nc3ccc(N4CCN(C5CC5)CC4)cc31)NC2=O` (single isomer, unassigned) [Example B55B], the IC50 in test [1] was 1830 nM; in test [2], 64 nM; in [3] it was 2.3 nM; in test [4] it was 4.3 nM; in [5], 3.2 nM; in test [6] it was 1.5 nM. Further, the IC50 in test [7] is 1.6 nM; in test [8] it was 1.7 nM; in test [9], 6 nM. Moreover, the GI50 in test [10] (setting [13]) stood at 2 nM; in test [10] (setting [14]) it was 2 nM; in test [10] (setting [15]), 11 nM; in test [10] (setting [16]), 2 nM; in test [10] (setting [17]), 2 nM; in test [10] (setting [18]), 17 nM. Besides, the GI50 came out at 7 nM in test [10] (setting [19]), 10 nM in test [11] and 2080 nM in test [12] (A-431 cells).

With `CCN1CCN(c2ccc3nc4n(c3c2)C23CCC(CN(CCOc5c(cnn5C)-c5cc(cc(C)n5)C(=O)N4)C2)C3)CC1` (single isomer, unassigned) [Example B56B], the IC50 worked out at 392 nM in test [1]; 26 nM in test [2]; 3 nM in test [3]; 4.4 nM in [4]; 4.1 nM in test [5]; 1.6 nM in test [6]. For the same molecule, the IC50 in [7] turned out to be 2.3 nM; in test [8], 1.7 nM; in test [9], 5.1 nM. In addition, the GI50 in [10] (setting [13]) is 2 nM; in test [10] (setting [14]), 2 nM; in [10] (setting [15]) it was 5 nM; in test [10] (setting [16]) it was 2 nM; in [10] (setting [17]) it was 2 nM; in [10] (setting [18]), 12 nM. For the same molecule, the GI50 in test [10] (setting [19]) is 7 nM; in [11], 10 nM; in test [12] (setting [20]) it was 426 nM.

In the case of `Cc1cc2cc(n1)-c1cnn(C)c1OCCN1CC3CCC(C3)(C1)n1c(nc3ccc(N4CCN(C(C)C)CC4)cc31)NC2=O` (single isomer, unassigned) [Example B57B], the IC50 in [1] is 543 nM; in test [2], 31 nM; in [3], 3.7 nM; in [4] it was 6.1 nM; in test [5], 4.3 nM; in test [6], 1.8 nM. Further, the figures for the IC50 in [7], in [8] and in test [9] were 2.6 nM, 2.1 nM and 6 nM, respectively. Further, the GI50 in test [10] (setting [13]) was found to be 2 nM; in test [10] (setting [14]), 2 nM; in test [10] (setting [15]), 8 nM; in [10] (setting [16]), 2 nM; in [10] (setting [17]), 2 nM; in test [10] (setting [18]) it was 9 nM. In addition, the figures for the GI50 in test [10] (setting [19]), in test [11] and in [12] (setting [20]) were 2 nM, 8 nM and 257 nM, respectively.

On to `Cc1cc2cc(n1)-c1cnn(C)c1OCCN1CC3CCC(C3)(C1)n1c(nc3ccc(N4CCN(C5COC5)CC4)cc31)NC2=O` (single isomer, unassigned) [Example B58A], for which the IC50 in test [1], in test [2], in test [3], in test [4], in test [5] and in test [6] was above 5000 nM in each case. Also, the concentration for half-maximal inhibition (IC50) in test [7] was above 5000 nM; in test [8], 3890 nM; in test [9], above 5000 nM. Also, the GI50 was 163 nM in test [10] (setting [13]); 229 nM in test [10] (setting [14]); 828 nM in test [10] (setting [15]); 90 nM in test [10] (setting [16]); 307 nM in test [10] (setting [17]); 1560 nM in test [10] (setting [18]). Also, the GI50 turned out to be 378 nM in [10] (setting [19]), 737 nM in test [11] and 8610 nM in [12] (A-431 cells).

Take `Cc1cc2cc(n1)-c1cnn(C)c1OCCN1CC3CCC(C3)(C1)n1c(nc3ccc(N4CCN(C5COC5)CC4)cc31)NC2=O` (single isomer, unassigned) [Example B58B]: the 50% inhibitory concentration (IC50) stood at 2750 nM in test [1]; 134 nM in test [2]; 5.9 nM in [3]; 12 nM in test [4]; 5.5 nM in test [5]; 3.1 nM in test [6]. The IC50 in test [7] was 3.2 nM; in test [8] it was 4.2 nM; in test [9] it was 33 nM. Further, the GI50 in test [10] (setting [13]) was 2 nM; in test [10] (setting [14]) it was 2 nM; in test [10] (setting [15]) it was 9 nM; in test [10] (setting [16]), 2 nM; in test [10] (setting [17]), 2 nM; in test [10] (setting [18]), 13 nM. In addition, the GI50 in [10] (setting [19]) turned out to be 2 nM; in test [11] it was 9 nM; in test [12] (A-431 cells) it was 532 nM.

The term IC50 denotes the concentration at which inhibition is half-maximal.
